The structures appear in SMILES notation. Numbered stars: 1 amine (or outer) side, 2 acyl side, 3 side chain; on linkers, the order of the positions; unused ones are H or OH. Bridge positions count the residues as written; N and C are the ends. Square brackets hold non-standard residues; d marks the D form. Peptide text beside a SMILES is read from it. * marks the point of attachment. ξ: configuration not given here. X47 = O=C([C@H](Cc1ccc(-c2cccc(OC(F)(F)F)c2)cc1)N[*:1])[*:2]; Phe(4-COOH) = N[C@@H](Cc1ccc(C(=O)O)cc1)C(=O)O; Ala(4-thiazolyl) = N[C@@H](Cc1cscn1)C(=O)O; Asp(3,3-Me2) = CC(C)(C(=O)O)[C@H](N)C(=O)O; Bip = N[C@@H](Cc1ccc(-c2ccccc2)cc1)C(=O)O; Phe(3-OMe) = COc1cccc(C[C@H](N)C(=O)O)c1; Phe(3-Me) = Cc1cccc(C[C@H](N)C(=O)O)c1; Val(3-OH) = CC(C)(O)[C@H](N)C(=O)O; aIle = CC[C@@H](C)[C@H](N)C(=O)O; 4Pal = N[C@@H](Cc1ccncc1)C(=O)O; Cha = N[C@@H](CC1CCCCC1)C(=O)O; Cit = NC(=O)NCCC[C@H](N)C(=O)O; Carboxymethyl = O=C(O)C*; NMeA = CN[C@@H](C)C(=O)O; Orn = NCCC[C@H](N)C(=O)O; Dab = NCC[C@H](N)C(=O)O; Dap = NC[C@H](N)C(=O)O; ξV = CC(C)C(N)C(=O)O

T1 sequence (Q15116 25-288): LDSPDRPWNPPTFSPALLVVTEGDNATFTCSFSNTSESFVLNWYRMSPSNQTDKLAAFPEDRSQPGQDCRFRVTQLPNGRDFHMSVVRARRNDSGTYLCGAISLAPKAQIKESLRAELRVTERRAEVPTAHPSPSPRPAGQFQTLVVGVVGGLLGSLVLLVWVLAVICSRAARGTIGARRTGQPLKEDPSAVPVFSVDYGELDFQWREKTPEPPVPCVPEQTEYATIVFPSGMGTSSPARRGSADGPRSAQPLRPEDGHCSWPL

This test has as its target T1, PE-labeled human PD-L1-Ig binding to Jurkat cell line over-expressing human PD-1 (Jurkat-PD-1) (Homo sapiens, UniProt Q15116).
T1 construct: expressed in transfected cells; host or cells: Jurkat
Nature of the test: Jurkat-PD-1 Cell Binding High-Content Screening Assay (CBA): Method 1. The settings on record: Jurkat-hPD-1 cells, PE-labeled PD-L1-Ig 20 nM final; read-out: Jurkat HPDL1 PD1 IC50 (uM) (Method 1).
As a reminder, the IC50 is the concentration that inhibits the measured activity by half. Regarding `Cc1cccc(C[C@@H]2NC(=O)[C@H](CC(=O)O)NC(=O)[C@H](Cc3ccc(OCC(=O)O)cc3)NC(=O)[C@H](CN)NC(=O)CSC[C@@H](C(N)=O)NC(=O)[C@H](CCCN)NC(=O)[C@H](C(C)C)NC(=O)[C@H](CC3CCCCC3)NC(=O)[C@H](CCN)NC(=O)[C@@H](CC(C)C)NC(=O)[C@H](C)N(C)C(=O)[C@H](Cc3ccc(OCC(=O)O)cc3)NC(=O)[C@H](Cc3ccc(-c4ccccc4)cc3)NC(=O)[C@H](Cc3ccc(OCC(=O)O)cc3)NC2=O)c1` [Compound 1646] ({CH2CO}-[Dap]Y(Carboxymethyl)D[Phe(3-Me)]Y(Carboxymethyl)[Bip]Y(Carboxymethyl)[NMeA][dL][Dab][Cha]V[Orn]C-NH2; thioether N-14), the IC50 came out at 0.03 µM.
For `COc1cccc(C[C@@H]2NC(=O)[C@H](CC(=O)O)NC(=O)[C@H](Cc3ccc(O)cc3)NC(=O)[C@H](CC(N)=O)NC(=O)CSC[C@@H](C(=O)N[C@@H](C)C(N)=O)NC(=O)[C@H]([C@@H](C)O)NC(=O)[C@H](C(C)C)NC(=O)[C@H](CC(C)C)NC(=O)[C@H](CCN)NC(=O)[C@@H](CC(C)C)NC(=O)[C@H](C)N(C)C(=O)[C@H](CCCNC(N)=O)NC(=O)[C@H](Cc3ccc(-c4ccccc4)cc3)NC(=O)[C@H](C(C)C)NC2=O)c1` [Compound 1231] ({CH2CO}-NYD[Phe(3-OMe)]V[Bip][Cit][NMeA][dL][Dab]LVTCA-NH2; thioether N-14), the IC50 was determined as 0.04 µM.
To `Cc1cccc(C[C@@H]2NC(=O)[C@H](CC(=O)O)NC(=O)[C@H](Cc3ccc(OCC(=O)O)cc3)NC(=O)[C@H](CCN)NC(=O)CSC[C@@H](C(=O)N[C@@H](CCN)C(N)=O)NC(=O)[C@H](CO)NC(=O)[C@H](C(C)(C)C(=O)O)NC(=O)[C@H](CC3CCCCC3)NC(=O)[C@H](CCN)NC(=O)[C@@H](CC(C)C)NC(=O)[C@H](C)N(C)C(=O)[C@H](Cc3ccc(OCC(=O)O)cc3)NC(=O)[C@H](Cc3ccc(-c4ccccc4)cc3)NC(=O)[C@H](Cc3ccc(OCC(=O)O)cc3)NC2=O)c1` [Compound 1848] ({CH2CO}-[Dab]Y(Carboxymethyl)D[Phe(3-Me)]Y(Carboxymethyl)[Bip]Y(Carboxymethyl)[NMeA][dL][Dab][Cha][Asp(3,3-Me2)]SC[Dab]-NH2; thioether N-14) belongs 0.06 µM.
Take `CC(C)C[C@@H]1NC(=O)[C@H](CCCN)NC(=O)[C@@H](CC(C)C)NC(=O)[C@H](C)N(C)C(=O)[C@H](C(C)C)NC(=O)[C@H](Cc2ccc(-c3ccccc3)cc2)NC(=O)[C@H](C(C)C)NC(=O)[C@H](Cc2c[nH]c3ccccc23)NC(=O)[C@H](CC(=O)O)NC(=O)[C@H](Cc2ccc(O)cc2)NC(=O)[C@H](CC(N)=O)NC(=O)CSC[C@@H](C(=O)N[C@@H](C)C(N)=O)NC(=O)[C@H]([C@@H](C)O)NC(=O)[C@H](C(C)C)NC1=O` [Compound 1243] ({CH2CO}-NYDWV[Bip]V[NMeA][dL][Orn]LVTCA-NH2; thioether N-14): the 50% inhibitory concentration (IC50) was found to be 0.01 µM.
To `CC(C)C[C@@H]1NC(=O)[C@H](Cc2c[nH]c3ccccc23)NC(=O)[C@H](CC(=O)O)NC(=O)[C@H](Cc2ccc(O)cc2)NC(=O)[C@H](CC(N)=O)NC(=O)CSC[C@@H](C(=O)N[C@@H](C)C(N)=O)NC(=O)[C@H]([C@@H](C)O)NC(=O)[C@H](C(C)C)NC(=O)[C@H](CC(C)C)NC(=O)[C@H](CCCNC(=N)N)NC(=O)[C@@H](CC(C)C)NC(=O)[C@H](C)N(C)C(=O)[C@H](CCCNC(=N)N)NC(=O)[C@H](Cc2ccc(-c3ccccc3)cc2)NC1=O` [Compound 1215] ({CH2CO}-NYDWL[Bip]R[NMeA][dL]RLVTCA-NH2; thioether N-14) belongs 0.08 µM; to `Cc1cccc(C[C@@H]2NC(=O)[C@H](CC(=O)O)NC(=O)[C@H](Cc3ccc(O)cc3)NC(=O)[C@H](CC(N)=O)NC(=O)CSC[C@@H](C(=O)N[C@@H](CCN)C(N)=O)NC(=O)[C@H](CCC(=O)O)NC(=O)[C@H](C(C)C)NC(=O)[C@H](CC3CCCCC3)NC(=O)[C@H](CCN)NC(=O)[C@@H](CC(C)C)NC(=O)[C@H](C)N(C)C(=O)[C@H](CCCNC(N)=O)NC(=O)[C@H](Cc3ccc(-c4ccccc4)cc3)NC(=O)[C@H](C(C)(C)O)NC2=O)c1` [Compound 1709] ({CH2CO}-NYD[Phe(3-Me)][Val(3-OH)][Bip][Cit][NMeA][dL][Dab][Cha]VEC[Dab]-NH2; thioether N-14), 0.03 µM.
As for `CC(C)C[C@@H]1NC(=O)[C@H](CCCNC(=N)N)NC(=O)[C@@H](CC(C)C)NC(=O)[C@H](C)N(C)C(=O)[C@H](CCCNC(=N)N)NC(=O)[C@H](Cc2ccc(-c3ccccc3)cc2)NC(=O)[C@H](C(C)C)NC(=O)[C@H](Cc2c[nH]c3ccccc23)NC(=O)[C@H](CC(=O)O)NC(=O)[C@H](Cc2ccc(C(=O)O)cc2)NC(=O)[C@H](Cc2ccncc2)NC(=O)CSC[C@@H](C(=O)N[C@@H](C)C(N)=O)NC(=O)[C@H]([C@@H](C)O)NC(=O)[C@H](C(C)C)NC1=O` [Compound 1077] ({CH2CO}-[4Pal][Phe(4-COOH)]DWV[Bip]R[NMeA][dL]RLVTCA-NH2; thioether N-14), the IC50 amounted to 0.05 µM.
Take `CC(=O)NCCCC[C@@H]1NC(=O)[C@H](C(C)C)NC(=O)[C@H](CC2CCCCC2)NC(=O)[C@H](CCN)NC(=O)[C@@H](CC(C)C)NC(=O)[C@H](C)N(C)C(=O)[C@H](CC(N)=O)NC(=O)[C@H](Cc2ccc(-c3ccccc3)cc2)NC(=O)[C@H](C(C)C)NC(=O)[C@H](Cc2cccc(C)c2)NC(=O)[C@H](CC(=O)O)NC(=O)[C@H](Cc2ccc(OCC(=O)O)cc2)NC(=O)[C@H](Cc2ccc(OCC(=O)O)cc2)NC(=O)CSC[C@@H](C(N)=O)NC1=O` [Compound 2263] ({CH2CO}-Y(Carboxymethyl)Y(Carboxymethyl)D[Phe(3-Me)]V[Bip]N[NMeA][dL][Dab][Cha]VK(Ac)C-NH2; thioether N-14): the IC50 is 0.01 µM.
Under `CC[C@@H](C)[C@@H]1NC(=O)[C@H](Cc2ccc(-c3ccccc3)cc2)NC(=O)[C@H](CC(C)C)NC(=O)[C@H](Cc2c[nH]c3ccccc23)NC(=O)[C@H](CC(=O)O)NC(=O)[C@H](Cc2ccc(C(=O)O)cc2)NC(=O)[C@H](Cc2ccc(OCC(=O)O)cc2)NC(=O)CSC[C@@H](C(=O)N[C@@H](CCCCN)C(N)=O)NC(=O)[C@H](Cc2cscn2)NC(=O)C(C(C)C)NC(=O)[C@H](CC(C)C)NC(=O)[C@H](CC(N)=O)NC(=O)[C@@H](CC(C)C)NC(=O)[C@H](C)N(C)C1=O` (stereo partly drawn) [Compound 2107] ({CH2CO}-Y(Carboxymethyl)[Phe(4-COOH)]DWL[Bip][aIle][NMeA][dL]NL[ξV][Ala(4-thiazolyl)]CK-NH2; thioether N-14) stands 0.24 µM.
Consider `Cc1cccc(C[C@@H]2NC(=O)[C@H](CC(=O)O)NC(=O)[C@H](Cc3ccc(O)cc3)NC(=O)[C@H](CN)NC(=O)CSC[C@@H](C(=O)N[C@@H](C)C(N)=O)NC(=O)[C@H]([C@@H](C)O)NC(=O)[C@H](C(C)C)NC(=O)[C@H](CC(C)C)NC(=O)[C@H](CCN)NC(=O)[C@@H](CC(C)C)NC(=O)[C@H](C)N(C)C(=O)[C@H](C(C)C)NC(=O)[C@H](Cc3ccc(-c4ccccc4)cc3)NC(=O)[C@H](C(C)C)NC2=O)c1` [Compound 1428] ({CH2CO}-[Dap]YD[Phe(3-Me)]V[Bip]V[NMeA][dL][Dab]LVTCA-NH2; thioether N-14), for which the IC50 is 0.04 µM.
On to `CC(C)C[C@@H]1NC(=O)[C@H](CCN)NC(=O)[C@@H](CC(C)C)NC(=O)[C@H](C)N(C)C(=O)[C@H](CCCNC(=N)N)NC(=O)[C@H](Cc2ccc(-c3cccc(OC(F)(F)F)c3)cc2)NC(=O)[C@H](C(C)C)NC(=O)[C@H](Cc2c[nH]c3ccccc23)NC(=O)[C@H](CC(=O)O)NC(=O)[C@H](Cc2ccc(O)cc2)NC(=O)[C@H](CC(N)=O)NC(=O)CSC[C@@H](C(=O)N[C@@H](C)C(N)=O)NC(=O)[C@H]([C@@H](C)O)NC(=O)[C@H](C(C)C)NC1=O` [Compound 1228] ({CH2CO}-NYDWV[X47]R[NMeA][dL][Dab]LVTCA-NH2; thioether N-14), for which the IC50 worked out at 0.9 µM.
As for `CC(C)C[C@@H]1NC(=O)[C@H](Cc2c[nH]c3ccccc23)NC(=O)[C@H](CC(=O)O)NC(=O)[C@H](Cc2ccc(O)cc2)NC(=O)[C@H](Cc2ccccc2)NC(=O)CSC[C@@H](C(=O)N[C@@H](C)C(N)=O)NC(=O)[C@H](CO)NC(=O)[C@H](CCCN)NC(=O)[C@H](CC(C)C)NC(=O)[C@H](CC(N)=O)NC(=O)[C@@H](CC(C)C)NC(=O)[C@H](C)N(C)C(=O)[C@H](C(C)C)NC(=O)[C@H](Cc2ccc(-c3ccccc3)cc2)NC1=O` [Compound 1537] ({CH2CO}-FYDWL[Bip]V[NMeA][dL]NL[Orn]SCA-NH2; thioether N-14), the IC50 came out at 0.02 µM.
Turning to `COc1cccc(C[C@@H]2NC(=O)[C@H](CC(=O)O)NC(=O)[C@H](Cc3ccc(O)cc3)NC(=O)[C@H](Cc3ccccc3)NC(=O)CSC[C@@H](C(=O)NCC(N)=O)NC(=O)[C@H](CO)NC(=O)[C@H](C(C)C)NC(=O)[C@H](CC(C)C)NC(=O)[C@H](CC(N)=O)NC(=O)[C@@H](CC(C)C)NC(=O)[C@H](C)N(C)C(=O)[C@H](C(C)C)NC(=O)[C@H](Cc3ccc(-c4ccccc4)cc3)NC(=O)[C@H](CC(C)C)NC2=O)c1` [Compound 1516] ({CH2CO}-FYD[Phe(3-OMe)]L[Bip]V[NMeA][dL]NLVSCG-NH2; thioether N-14), the concentration for half-maximal inhibition (IC50) was 0.02 µM.
In the case of `CC(C)C[C@@H]1NC(=O)[C@H](Cc2c[nH]c3ccccc23)NC(=O)[C@H](CC(=O)O)NC(=O)[C@H](Cc2ccc(O)cc2)NC(=O)[C@H](Cc2ccccc2)NC(=O)CSC[C@@H](C(=O)NCC(N)=O)NC(=O)[C@H](CO)NC(=O)[C@H](C(C)C)NC(=O)[C@H](CC(C)C)NC(=O)[C@H](CC(=O)O)NC(=O)[C@H](CC(C)C)NC(=O)[C@H](C)N(C)C(=O)[C@H](C(C)C)NC(=O)[C@H](Cc2ccc(-c3ccccc3)cc2)NC1=O` [Compound 1824] ({CH2CO}-FYDWL[Bip]V[NMeA]LDLVSCG-NH2; thioether N-14), the IC50 is 0.63 µM.

These data come from patent publication US20240409585A1, “MACROCYCLIC IMMUNOMODULATORS” (priority 2021, published 2024).
